Data set [1] concerns NSC-34 cells. Description: BrdU ELISA (proliferation) in NSC-34 cells. The class given is cell-based, Mouse. The settings on record: DRP 0.01-3 μM, 24 h; compared to DMSO-treated controls. Here is the method: BrdU ELISA: The BrdU ELISA is an ELISA detecting cell proliferation activity. BrdU is a pyrimidine analog that, when inside the cell, can be incorporated instead of thymidine into newly synthesized strands of DNA. Just as is indicated by thymidine incorporation into DNA, BrdU incorporation into cell DNA indicates DNA synthesis activity, which is required for cell proliferation. In the BrdU ELISA, cells are treated with test compounds as well as BrdU reagent, and then incubated for 24 hours before testing. During testing, an anti-BrdU antibody detects the incorporation of BrdU into cell DNA that occurred over the 24-hour period, as a surrogate for cell proliferation activity. This anti-BrdU antibody is then labelled with a secondary antibody tagged with a colored substrate, which can be quantified spectrophotometrically. Greater absorbance readings correspond to more cell proliferation activity.
Cells were plated in culture medium in 2 96-well plates at a density of 3.7×10^4 cells per well, and incubated overnight at 37° C., 5% CO2.
The following conditions were plated in triplicate.
Plates were incubated for 24 h at 37° C., 5% CO2. Cells were tested and data were analyzed using the procedure detailed in BrdU ELISA kit instructions.
Cells were plated in culture medium in 2 96-well plates at a density of 5×10^4 cells per well, and incubated overnight at 37° C., 5% CO2. […] 10 μL of each concentration would be added to 100 μL base media in plate to achieve final concentrations of 3, 1, 0.3, 0.1, 0.03, and 0.01 μM DRP.
The following conditions were plated in triplicate. Samples were surrounded by border wells on the outside of the plate filled with sterile Phosphate-buffered saline to prevent evaporation of volume in experimental wells during incubation; • Culture medium only • Background (Cells only in culture medium, without BrdU reagent) • Untreated (Cells only in culture medium, with BrdU reagent) • DMSO Controls (Cells treated with BrdU reagent and the amount of DMSO that DRP-treated cells were exposed to at each concentration) • i. The DMSO controls tested were as follows, corresponding to DRP doses starting at the highest (3 μM to the lowest 0.01 μM), and were diluted in culture medium: • 1. 0.03% DMSO • 2. 0.01% DMSO • 3. 0.003% DMSO • 4. 0.001% DMSO • 5. 0.0003% DMSO • 6.

Data set [2] relates to NSC-34 cells. Description: Caspase-3 assay (apoptotic activity) in NSC-34 cells. It is filed as cell-based. The settings on record: DRP 0.01-3 μM, 24 h; compared to DMSO-treated controls. From the text:
Caspase-3/CPP32 Assay: The caspase-3 assay is a fluorometric assay that measures apoptotic cell death. Apoptosis is a form of “programmed” cell death, in which a certain family of proteins inside the cell triggers a cascade of chemical reactions that result in the cell killing itself. One family of proteins involved in this process is the caspase protein family. Of the caspase proteins, caspase-2, 8, 9, and 10 are known as “initiators,” those that trigger the death cascade, and caspase-3, 6, and 7 are known as “executioners,” which carry out the actual killing of the cell. In a caspase-3 assay, cells treated with test compounds are lysed, and a substrate known as DEVD-AFC is added to the lysate. If active caspase-3 enzyme is present in the lysate, it will cleave AFC from the DEVD-AFC substrate, resulting in a fluorescent signal that can be quantified using a fluorescence microtiter plate reader. Thus, the apoptotic activity of cells treated with test compounds can be quantified. Greater fluorescence readings correspond to more apoptotic cell death.
Cells were plated in culture medium in 2 96-well plates at a density of 3.7×10^4 cells per well, and incubated overnight at 37° C., 5% CO2. The following day, immediately prior to addition of test compounds, existing culture medium was removed and replaced with staggered volumes of culture medium as in Example 1. A 10 mM stock of MS023 was thawed to room temperature and diluted as in Example 1. A 10 mM stock of GR15 (SEQ ID NO: 1) and a 10 mM stock of PR15 (SEQ ID NO: 2) were equilibrated to room temperature and diluted in warm culture medium to achieve a final concentration of 300 nM in wells.
The following conditions were plated in triplicate. Samples were surrounded by border wells on the outside of the plate filled with sterile Phosphate-buffered saline to prevent evaporation of volume in experimental wells during incubation; • Background (Culture medium only) • Untreated/“Cells Only” (Cells in culture medium) • DMSO Control (Cells treated only with the amount of DMSO that GR- and PR-treated cells were exposed to) • GR Only (Cells treated only with 300 nM GR15) (SEQ ID NO: 1) • Cells treated with […] GR15 (SEQ ID NO: 1) and one of the following doses of MS023: 60 μM, 30 μM, 10 μM, 3 μM, 1 μM. • PR Only (Cells treated only with 300 nM PR15) (SEQ ID NO: 2) • Cells treated with 300 nM PR15 (SEQ ID NO: 2) and one of the following doses of MS023: 60 μM, 30 μM, 10 μM, 3 μM, 1 μM. • Cells treated with only one of the following doses of MS023: 60 μM, 30 μM, 10 μM, 3 μM, 1 μM. • Positive controls (Cells treated with either 5 or 16 μM PAC-1 Caspase-3 activator)
Plates were incubated for 24 h at 37° C., 5% CO2. Cells were tested and data were analyzed using the procedure detailed in Caspase-3 assay kit instructions.
Cells were plated in culture medium in 2 96-well plates at a density of 3.7×10^4 cells per well, and incubated overnight at 37° C., 5% CO2. The following day, immediately prior to addition of test compounds, existing culture medium was removed and replaced with staggered volumes of culture medium as in Example 1. A 10 mM stock of MS023 was thawed to room temperature and diluted in warm culture medium to achieve final concentrations of 3, 1, 0.3, 0.1, 0.03, and 0.01 μM in plate. A 10 mM stock of GR15 (SEQ ID NO: 1) and a 10 mM stock of PR15 (SEQ ID NO: 2) were equilibrated to room temperature and diluted in warm culture medium to achieve a final concentration of 3 μM in wells.
The following conditions were plated in triplicate. […]

No end group written: not given here.

For the sequence GPGPGPGPGPGPGPGPGPGPGPGPGPGPGP [GP15], in the data set on NSC-34 cells [1], the “effect of DRP on proliferation activity” value is “did not significantly impact proliferation activity”. Moreover, the DRP-induced apoptotic activity result with NSC-34 cells [2] is “producing less robust levels of apoptotic activity”.

As for PAPAPAPAPAPAPAPAPAPAPAPAPAPAPA [PA15], the “effect of DRP on proliferation activity” value in the data set on NSC-34 cells [1] is on record as “did not significantly impact proliferation activity”. For the same sequence, in the data set with NSC-34 cells [2], the DRP-induced apoptotic activity result was “producing less robust levels of apoptotic activity”.
